Test results taken from paper PMC5693303 (Journal of medicinal chemistry, 2016).
Marks after values point to notes of the source that are not given here.

Key:
[1] = Tail flick test, 52 °C water, compound alone
KOR [2] = target: KOR (Mus musculus, UniProt P33534); test: Tail flick test, pretreatment before KOR agonist 17; assay type: in vivo, mice; conditions: 10 µg in 5 µL l.p., 15 min before 17 (10 µg)
KOR [3] = target: KOR (Homo sapiens, UniProt P41145); test: [^35S]GTPγS assay, agonist mode; assay type: biochemical; conditions: 10 µM, KOR-CHO cells, compared to vehicle
hMOR = hMOR (Homo sapiens, UniProt P35372); test: Radioligand competition binding, [^3H]diprenorphine or [^3H]DAMGO; conditions: [^3H]diprenorphine, Kd = 2.81 nM; NC = no competition
KOR [4] = target: KOR (Cavia porcellus, UniProt P41144); test: GPI/LMMP assay, inhibition of electrically stimulated muscle contraction; assay type: cell-based, guinea pig
KOR (Cavia porcellus, UniProt P41144), sequence (P41144 whole entry): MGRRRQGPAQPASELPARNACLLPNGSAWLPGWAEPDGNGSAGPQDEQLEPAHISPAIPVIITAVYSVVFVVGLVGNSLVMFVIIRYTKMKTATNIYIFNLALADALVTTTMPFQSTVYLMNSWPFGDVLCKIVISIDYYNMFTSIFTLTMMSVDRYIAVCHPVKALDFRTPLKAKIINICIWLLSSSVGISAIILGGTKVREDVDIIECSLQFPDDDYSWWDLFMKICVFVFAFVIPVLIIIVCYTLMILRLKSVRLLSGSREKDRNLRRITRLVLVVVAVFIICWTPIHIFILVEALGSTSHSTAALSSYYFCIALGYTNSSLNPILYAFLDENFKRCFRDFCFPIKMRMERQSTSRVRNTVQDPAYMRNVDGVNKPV

KOR (Homo sapiens, UniProt P41145), sequence (P41145 whole entry): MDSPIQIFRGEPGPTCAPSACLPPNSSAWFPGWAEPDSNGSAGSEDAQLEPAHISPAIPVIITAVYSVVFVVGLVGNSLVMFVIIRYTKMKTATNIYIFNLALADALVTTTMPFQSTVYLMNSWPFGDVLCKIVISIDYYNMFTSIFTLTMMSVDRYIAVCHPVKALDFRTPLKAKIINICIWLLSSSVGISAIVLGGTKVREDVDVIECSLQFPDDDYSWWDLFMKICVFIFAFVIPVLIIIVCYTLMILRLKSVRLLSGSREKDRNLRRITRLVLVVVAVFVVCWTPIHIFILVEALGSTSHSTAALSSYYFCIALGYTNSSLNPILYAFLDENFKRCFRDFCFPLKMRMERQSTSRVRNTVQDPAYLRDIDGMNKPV
hMOR, sequence (P35372 whole entry): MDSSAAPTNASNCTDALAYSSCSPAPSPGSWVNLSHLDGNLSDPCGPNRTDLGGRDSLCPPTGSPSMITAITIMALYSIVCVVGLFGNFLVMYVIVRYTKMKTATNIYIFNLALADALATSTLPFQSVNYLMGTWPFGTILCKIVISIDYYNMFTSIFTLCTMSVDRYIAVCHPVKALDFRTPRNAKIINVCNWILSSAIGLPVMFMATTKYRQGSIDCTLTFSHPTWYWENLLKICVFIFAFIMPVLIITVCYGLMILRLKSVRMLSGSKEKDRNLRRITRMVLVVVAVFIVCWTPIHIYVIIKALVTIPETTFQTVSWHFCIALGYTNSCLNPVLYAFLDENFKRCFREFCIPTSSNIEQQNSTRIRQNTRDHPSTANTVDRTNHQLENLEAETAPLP
KOR (Mus musculus, UniProt P33534), sequence (P33534 whole entry): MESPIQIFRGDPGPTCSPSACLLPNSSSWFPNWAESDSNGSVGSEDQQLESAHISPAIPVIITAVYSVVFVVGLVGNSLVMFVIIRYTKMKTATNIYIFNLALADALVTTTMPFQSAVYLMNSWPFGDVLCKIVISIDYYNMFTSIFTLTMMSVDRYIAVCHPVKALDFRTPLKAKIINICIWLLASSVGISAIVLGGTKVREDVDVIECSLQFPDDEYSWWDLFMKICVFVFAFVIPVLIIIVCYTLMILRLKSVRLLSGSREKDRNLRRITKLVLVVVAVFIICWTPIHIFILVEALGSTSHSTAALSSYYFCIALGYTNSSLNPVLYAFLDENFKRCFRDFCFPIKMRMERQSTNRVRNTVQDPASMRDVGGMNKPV

Substance: H-YGPFLRIRPK-NH2 [compound 7]
- elevation of TWL, % of max response ([1]; 10 µg in 5 µL i.t., 30 min): 39.45 ± 6.95%
- tail withdrawal latency (antinociceptive effect) ([1]; 0.1, 1.0 and 10 µg in 5 µL i.t., compared to vehicle): significantly elevated tail withdrawal latency
- blockade of antinociceptive effect of 17 (KOR [2]): significantly blocked

Substance: H-YGGFLRIRPK-NH2 [compound 3]
- KOR activation (KOR [3]): significant activation

Substance: Ac-YGPFLRIRPK-NH2 [compound 8]
- Ki (hMOR): no competition

Substance: Ac-YGGFLRIRPK-NH2 [compound 5]
- KOR activation (KOR [3]): did not show KOR activation
- percent of agonist activity (KOR [4]; 1 µM test compound, compared to average signal 3 min prior to drug): 0% ^b
- agonist response in GPI/LMMP (KOR [4]; in words): did not show significant responses
